Test results from patent US12037344B2, “NLRP3 modulators” (INNATE TUMOR IMMUNITY, INC., priority 2018, dated 2024).
pEC50: −log10 of the molar value.

Key:
TLR8 = biological target: T1, TLR8 (Homo sapiens, UniProt Q9NR97); assay: In vitro human TLR8 binding reporter assay (HEK-Blue, NF-kB/AP1-inducible SEAP); assay type: cell-based; conditions: activity range, read-out: TLR8 Agonist EC50
T1 construct: human HEK-Blue cells co-expressing a TLR7 or TLR8 gene
T1 sequence (Q9NR97 27-1041): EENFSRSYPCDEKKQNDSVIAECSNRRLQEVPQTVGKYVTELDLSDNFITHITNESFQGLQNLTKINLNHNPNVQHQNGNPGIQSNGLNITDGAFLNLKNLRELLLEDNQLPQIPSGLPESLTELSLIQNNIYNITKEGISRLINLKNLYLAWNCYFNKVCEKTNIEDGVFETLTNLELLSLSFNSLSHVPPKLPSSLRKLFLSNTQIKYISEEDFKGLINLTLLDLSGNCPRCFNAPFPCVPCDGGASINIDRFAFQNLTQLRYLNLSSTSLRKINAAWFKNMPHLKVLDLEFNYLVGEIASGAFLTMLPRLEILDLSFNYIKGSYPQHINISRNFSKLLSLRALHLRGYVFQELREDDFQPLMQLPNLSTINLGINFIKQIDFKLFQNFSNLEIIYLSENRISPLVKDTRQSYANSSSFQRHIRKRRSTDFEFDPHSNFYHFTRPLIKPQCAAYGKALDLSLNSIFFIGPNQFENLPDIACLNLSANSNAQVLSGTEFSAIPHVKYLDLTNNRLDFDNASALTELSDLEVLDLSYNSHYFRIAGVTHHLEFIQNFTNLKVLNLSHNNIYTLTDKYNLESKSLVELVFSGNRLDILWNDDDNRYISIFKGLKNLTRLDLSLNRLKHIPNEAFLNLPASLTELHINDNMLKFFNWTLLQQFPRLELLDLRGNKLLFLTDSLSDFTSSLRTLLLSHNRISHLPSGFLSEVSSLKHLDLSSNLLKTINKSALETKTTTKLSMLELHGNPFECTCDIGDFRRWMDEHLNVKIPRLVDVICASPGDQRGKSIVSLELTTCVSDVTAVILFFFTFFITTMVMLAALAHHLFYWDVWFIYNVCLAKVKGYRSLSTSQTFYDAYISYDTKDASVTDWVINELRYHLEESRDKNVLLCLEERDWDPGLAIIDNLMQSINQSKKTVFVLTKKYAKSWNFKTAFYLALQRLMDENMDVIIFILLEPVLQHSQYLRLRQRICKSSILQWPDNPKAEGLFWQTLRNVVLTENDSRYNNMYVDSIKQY
Outline: (§1)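 EC50s come from NF-kB/AP1-driven SEAP secretion in HEK-Blue cells expressing TLR7 or TLR8, measured with Quanti-Blue after an 18 h compound incubation. Maximal response is defined by a 50 μM reference standard.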

TLR7 = biological target: T2, TLR7 (Homo sapiens, UniProt Q9NYK1); assay: In vitro human TLR7 binding reporter assay (HEK-Blue, NF-kB/AP1-inducible SEAP); assay type: cell-based; conditions: activity range, read-out: TLR7 Agonist EC50
T2 construct: human HEK-Blue cells co-expressing a TLR7 or TLR8 gene
T2 sequence (Q9NYK1 27-1049): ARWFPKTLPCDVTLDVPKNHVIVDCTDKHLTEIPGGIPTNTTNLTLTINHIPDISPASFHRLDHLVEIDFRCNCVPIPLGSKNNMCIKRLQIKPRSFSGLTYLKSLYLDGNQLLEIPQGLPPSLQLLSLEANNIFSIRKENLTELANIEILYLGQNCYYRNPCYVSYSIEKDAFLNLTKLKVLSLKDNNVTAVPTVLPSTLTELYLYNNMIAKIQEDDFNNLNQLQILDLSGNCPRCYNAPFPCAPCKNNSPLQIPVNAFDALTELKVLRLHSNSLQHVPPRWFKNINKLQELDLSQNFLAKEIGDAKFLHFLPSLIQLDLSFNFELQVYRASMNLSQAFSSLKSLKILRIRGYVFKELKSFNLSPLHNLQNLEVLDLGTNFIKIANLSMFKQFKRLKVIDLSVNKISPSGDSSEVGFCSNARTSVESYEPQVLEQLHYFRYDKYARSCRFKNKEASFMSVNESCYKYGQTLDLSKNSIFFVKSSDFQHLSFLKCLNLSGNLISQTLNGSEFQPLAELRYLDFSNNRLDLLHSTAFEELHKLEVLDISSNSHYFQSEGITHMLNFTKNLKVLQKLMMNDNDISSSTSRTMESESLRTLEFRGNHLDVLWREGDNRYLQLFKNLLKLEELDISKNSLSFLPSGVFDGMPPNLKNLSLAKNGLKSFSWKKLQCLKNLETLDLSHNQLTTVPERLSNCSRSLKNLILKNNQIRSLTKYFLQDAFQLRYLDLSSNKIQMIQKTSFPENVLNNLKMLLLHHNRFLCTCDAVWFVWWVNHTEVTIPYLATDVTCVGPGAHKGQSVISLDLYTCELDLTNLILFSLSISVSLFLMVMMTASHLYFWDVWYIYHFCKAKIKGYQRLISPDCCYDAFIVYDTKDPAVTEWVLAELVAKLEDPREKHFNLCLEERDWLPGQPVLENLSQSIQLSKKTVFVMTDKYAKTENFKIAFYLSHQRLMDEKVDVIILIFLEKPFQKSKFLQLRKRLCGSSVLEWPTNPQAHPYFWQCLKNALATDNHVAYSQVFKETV
Outline: as §1

THP-1 cells = assay: Measurement of IL-1β production, hTRF protocol (second alternative procedure), THP-1 cells; assay type: cell-based, human; conditions: Homo sapiens, THP-1, IL-1β production, human cells; read-out: NLRP3 hILIB EC50
Outline: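 Compounds, dilution series starting at a final 10 μM, were incubated 2 hours at 37° C with PMA-differentiated THP-1 cells (50 ng/ml overnight; 50,000 cells/well, 2% FBS RPMI). Released IL-1β quantified in supernatant by hTRF kit with 1:40 antibody dilution, 4° C overnight, 665/615 nm ratio.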

Row | Structure (SMILES) | pEC50 (TLR8) | pEC50 (TLR7) | pEC50 (THP-1 cells)
1 | CC(C)(C(=O)N1CCCC1)n1cc2c(N)nc3cc(-c4cc[nH]n4)ccc3c2n1 [Example 509] | < 4.00 | < 4.00 | 5.16
2 | CC(C)(C(=O)NCC(F)F)n1cc2c(N)nc3cc(-c4cc[nH]n4)ccc3c2n1 [Example 514] | < 4.00 | < 4.00 | 5.74
3 | Cn1cnc(C(=O)NCCc2cc3c(N)nc4cc(-c5cc[nH]n5)ccc4c3[nH]2)c1 [Example 518] | < 4.00 | < 4.00 | 6.28
4 | Nc1nc2cc(-c3cc[nH]n3)ccc2c2[nH]c(CCNC(=O)c3cccc(O)n3)cc12 [Example 519] | < 4.00 | < 4.00 | 5.68
5 | Nc1nc2cc(-c3cc[nH]n3)ccc2c2[nH]c(CNCC(F)F)cc12 [Example 520] | < 4.00 | < 4.00 | 7.05
6 | CC(C)(CO)NC(=O)C(C)(C)n1cc2c(N)nc3cc(-c4cc[nH]n4)ccc3c2n1 [Example 522] | < 4.00 | < 4.00 | 4.91
7 | CC(C)(C(=O)N1CC(F)(F)C1)n1cc2c(N)nc3cc(-c4cc[nH]n4)ccc3c2n1 [Example 523] | < 4.00 | < 4.00 | 5.14
8 | CC(C)(C(=O)NC1CCC1)n1cc2c(N)nc3cc(-c4cc[nH]n4)ccc3c2n1 [Example 524] | < 4.00 | < 4.00 | 5.69
9 | CC(C)(C(=O)NCc1ccccn1)n1cc2c(N)nc3cc(-c4cc[nH]n4)ccc3c2n1 [Example 525] | < 4.00 | < 4.00 | 4.69
10 | CCS(=O)(=O)CCn1cc2c(n1)c(N)nc1cc(-c3cc[nH]n3)ccc12 [Example 526] | < 4.00 | < 4.00 | 6.15
11 | NC(=O)C1(Cn2cc3c(n2)c(N)nc2cc(-c4cc[nH]n4)ccc23)CC1 [Example 527] | < 4.00 | < 4.00 | 6.40
12 | Nc1nc2cc(-c3cc[nH]n3)ccc2c2cn(CC(=O)N3CCCC3)nc12 [Example 528] | < 4.00 | < 4.00 | 6.29
13 | C[C@H](Cn1cc2c(n1)c(N)nc1cc(-c3cc[nH]n3)ccc12)NS(C)(=O)=O [Example 530] | < 4.00 | < 4.00 | 6.17
14 | C[C@@H](Cn1cc2c(n1)c(N)nc1cc(-c3cc[nH]n3)ccc12)NS(C)(=O)=O [Example 531] | < 4.00 | < 4.00 | 5.77
15 | Nc1nc2cc(-c3cc[nH]n3)ccc2c2cn(CC(=O)N3CCOCC3)nc12 [Example 532] | < 4.00 | < 4.00 | 6.47
16 | Nc1nc2cc(-c3cc[nH]n3)ccc2c2cn(CC(=O)N[C@@H]3CCOC3)nc12 [Example 533] | < 4.00 | < 4.00 | 5.64
17 | COCCNC(=O)Cn1cc2c(n1)c(N)nc1cc(-c3cc[nH]n3)ccc12 [Example 536] | < 4.00 | < 4.00 | 5.45
18 | CC(Cn1cc2c(n1)c(N)nc1cc(-c3cc[nH]n3)ccc12)C(=O)N1CCOCC1 (stereo not drawn) [Example 539] | < 4.00 | < 4.00 | 4.73
19 | N#C[C@H]1CCN(C(=O)Cn2cc3c(n2)c(N)nc2cc(-c4cc[nH]n4)ccc23)C1 [Example 540] | < 4.00 | < 4.00 | 5.50
20 | NC(=O)Cn1cc2c(n1)c(N)nc1cc(-c3ccn[nH]3)ccc12 [Example 541] | < 4.00 | < 4.00 | 6.19

Next, values leading:

Row | pEC50 (TLR8) | pEC50 (TLR7) | pEC50 (THP-1 cells) | Structure (SMILES)
21 | < 4.00 | < 4.00 | 4.53 | CN1CCN(C(=O)CCn2cc3c(N)nc4cc(-c5cc[nH]n5)ccc4c3n2)CC1 [Example 505]
22 | < 4.00 | < 4.00 | 5.85 | CN(C)C(=O)CCn1cc2c(N)nc3cc(-c4cc[nH]n4)ccc3c2n1 [Example 506]
23 | < 4.00 | < 4.00 | 4.76 | Nc1nc2cc(-c3cc[nH]n3)ccc2c2nn(CCC(=O)NCc3ccccn3)cc12 [Example 507]
24 | < 4.00 | < 4.00 | 5.13 | Nc1nc2cc(-c3cc[nH]n3)ccc2c2nn(CCC(=O)N3CCCC3)cc12 [Example 508]
25 | < 4.00 | < 4.00 | 5.61 | CC(C)NC(=O)CCn1cc2c(N)nc3cc(-c4cc[nH]n4)ccc3c2n1 [Example 510]
26 | < 4.00 | < 4.00 | 5.34 | Nc1nc2cc(-c3cc[nH]n3)ccc2c2nn(CCC(=O)NCCO)cc12 [Example 511]
27 | < 4.00 | < 4.00 | 5.24 | Nc1nc2cc(-c3cc[nH]n3)ccc2c2nn(CCC(=O)N3CC(O)C3)cc12 [Example 512]
28 | < 4.00 | < 4.00 | 5.89 | CNC(=O)C(C)(C)n1cc2c(N)nc3cc(-c4cc[nH]n4)ccc3c2n1 [Example 513]
29 | < 4.00 | < 4.00 | 5.39 | Nc1nc2cc(-c3cc[nH]n3)ccc2c2nn(CCC(=O)NCC(F)F)cc12 [Example 515]
30 | < 4.00 | < 4.00 | 5.01 | N#C[C@H]1CCN(C(=O)CCn2cc3c(N)nc4cc(-c5cc[nH]n5)ccc4c3n2)C1 [Example 516]
31 | < 4.00 | < 4.00 | 5.76 | CCNC(=O)CCn1cc2c(N)nc3cc(-c4cc[nH]n4)ccc3c2n1 [Example 517]
32 | < 4.00 | < 4.00 | 5.25 | CC(C)(C(=O)NCCO)n1cc2c(N)nc3cc(-c4cc[nH]n4)ccc3c2n1 [Example 521]
33 | < 4.00 | < 4.00 | 6.06 | CCNC(=O)Cn1cc2c(n1)c(N)nc1cc(-c3cc[nH]n3)ccc12 [Example 529]
34 | < 4.00 | < 4.00 | 6.15 | CC(C)NC(=O)Cn1cc2c(n1)c(N)nc1cc(-c3cc[nH]n3)ccc12 [Example 534]
35 | < 4.00 | < 4.00 | 6.02 | CNC(=O)CCn1cc2c(n1)c(N)nc1cc(-c3cc[nH]n3)ccc12 [Example 535]
36 | < 4.00 | < 4.00 | 5.56 | CC(C)(CO)NC(=O)Cn1cc2c(n1)c(N)nc1cc(-c3cc[nH]n3)ccc12 [Example 537]
37 | < 4.00 | < 4.00 | 6.22 | Nc1nc2cc(-c3cc[nH]n3)ccc2c2cn(CC(=O)NCC(F)F)nc12 [Example 538]
